Experimental data: paper PMC11574108, “4-Furanylvinylquinoline derivative as a new scaffold for the design of oxidative stress initiator and glucose transporter inhibitor drugs” (Scientific Reports, 2024)

What was measured:
Type in all cases: cell-based, human
[1] = tested on: HCT 116 p53+/+; test: Monolayer antiproliferative MTS assay; conditions: 2D monolayer; for IC50: MTS, 72-h incubation
Excerpt: (§1) The human colon carcinoma cell line HCT 116 with wild-type p53 (p53^+/+) and the human glioblastoma cell line U-251 were obtained from ATCC, while the HCT 116 with a p53 deletion (p53^−/−) was kindly provided by Prof. M. Rusin from the Maria Sklodowska-Curie Memorial Cancer Center and Institute of Oncology in Gliwice, Poland. The human chronic myelogenous leukaemia cell line K562 and the normal human cell dermal fibroblast cell line NHDF were purchased from Sigma-Aldrich and PromoCell, respectively. Both the HCT 116 and U-251 cell lines were cultured in Dulbecco’s modified Eagle’s medium (DMEM) supplemented with 10% inactivated foetal bovine serum (FBS). The DMEM for the NHDF contained 15% non-inactivated FBS. K562 cells were cultured in RPMI medium completed by 10% inactivated FBS. Additionally, the media were supplemented with antibiotics (streptomycin and penicillin – 1% v/v; Sigma-Aldrich). The cell culture was conducted in 75 cm^2 flasks (Nunc) under standard conditions (37 °C, 5% CO2 humidified atmosphere). Furthermore, the cell lines were frequently tested for mycoplasma using the qRT-PCR technique with specific Mycoplasma primers to confirm the lack of contamination.
(§2) The cells were seeded in 96-well plates (Nunc) with 5,000 or 4,000 cells per well for the cancer cells and NHDF, respectively, and incubated under standard conditions at 37 °C overnight. The culture media were then changed for freshly prepared solutions of the tested compounds in various concentrations. After 72-h incubation the antiproliferative assay was carried out as follows: the solutions of the compounds were changed in each well to 100 µL DMEM without phenol red and 20 µL of CellTiter 96 AQueous One Solution-MTS (Promega). The plates were incubated for 1 h at 37 °C, and the absorbance was then measured at 490 nm using a multi-plate reader (Synergy 4, BioTek). The experiment for each sample was repeated at least three times.
(§3) Additionally, the compounds were also tested for their cytotoxicity against normal cells – human dermal fibroblasts (NHDF).

[2] = tested on: HCT 116 p53-/-; test: Monolayer antiproliferative MTS assay; conditions: 2D monolayer; for IC50: MTS, 72-h incubation
Excerpt: as §1, §2, §3

[3] = tested on: CDK1; test: qRT-PCR, CDK1 mRNA expression; conditions: for CDK1 mRNA level vs control: HCT 116 p53-/-, 24 h
Procedure: The cells were seeded in 35 mm Petri dishes at a density of 500,000 cells and incubated at 37 °C for 24 h. The total RNA was isolated after incubation with solutions of 13 (0.5 µM and 1.0 µM) for 24 h and 48 h, respectively. The isolation from the samples was carried out according to a TRIzol™ Reagent protocol (Thermo Fisher Scientific). Synthesis of cDNA was performed with 2 µg of total RNA using a GoScript™ Reverse Transcriptase kit (Promega) with Oligo(dT)23 Primers. Real-Time PCR was carried out using a CFX96 Touch™ Real-Time PCR Detection System (Bio-Rad) in 10 µL reaction volume. Each sample contained SsoAdvanced™ Universal SYBR Green Supermix (Bio Rad), a specific primer pair mix (0.5 µM each), and 1 µL of cDNA. The reaction was performed under the following conditions: initial denaturation at 95 °C for 30 s; 40 cycles of denaturation at 95 °C for 15 s; annealing (primer-specific temperature) for 30 s, and extension at 72 °C for 60 s. The obtained data were analysed based on a comparison of the expression of the target genes and normalized to a reference gene (GAPDH) using the Livak-Schmittgen (2^−ΔΔCT) method. The experiments were performed at least three times.
In the next step, we decided to investigate the impact of derivative 13 on the mRNA level of CDK1 (the gene encoding one of the cell cycle regulation proteins) at various concentrations and time points (Fig. 4B). In the HCT 116 p53^+/+ cells after the application 0.5 µM of derivative 13, we noticed a slight increase in the expression of CDK1 after both 24 and 48-h. […] However, after a further incubation time, the mRNA level of this gene was similar to that in the untreated cells.

With O=[N+]([O-])c1ccc(/C=C/c2ccnc3ccccc23)o1 [Compound 13] the IC50 [1] was 69 ± 9 nM, the “SI (selectivity index) HCT 116 p53+/+” value ([1]; relative to NHDF) was 9.41 and the IC50 ([1]; Homo sapiens, HCT-116, 72 h) was < 100 nM. The IC50 [2] was 94 ± 10 nM, the “SI (selectivity index) HCT 116 p53-/-” value ([2]; relative to NHDF) was 6.90 and the IC50 ([2]; Homo sapiens, HCT-116, 72 h) was < 100 nM. For the same molecule, the “CDK1 mRNA level vs control” value ([3]; 0.5 µM) was “two-fold higher”, the “CDK1 mRNA level vs control” value ([3]; 1 µM) was “around one and the half times” and the “CDK1 mRNA expression vs control” value ([3]; U-251, 24 h) was “greater than two-fold upregulation”.
